Measurements from ChEMBL document CHEMBL1144289, “A convenient one-pot synthesis of asymmetric 1,3,5-triazine-2,4,6-triones and its application towards a novel class of gonadotropin-releasing hormone receptor antagonists” (Bioorg Med Chem Lett, 2005).

Biological target: T1, Gonadotropin-releasing hormone receptor (Homo sapiens, UniProt P30968)
T1 sequence (P30968 whole entry): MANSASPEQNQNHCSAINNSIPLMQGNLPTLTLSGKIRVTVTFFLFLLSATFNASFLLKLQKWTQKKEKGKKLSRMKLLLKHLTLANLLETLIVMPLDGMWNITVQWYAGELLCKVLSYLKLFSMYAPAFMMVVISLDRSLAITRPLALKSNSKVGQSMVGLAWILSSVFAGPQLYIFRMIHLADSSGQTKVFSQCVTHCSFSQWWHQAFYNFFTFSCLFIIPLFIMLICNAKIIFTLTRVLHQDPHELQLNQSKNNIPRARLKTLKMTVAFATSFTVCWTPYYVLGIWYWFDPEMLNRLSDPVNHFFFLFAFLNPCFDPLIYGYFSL
Assay: Inhibitory constant against cloned human Gonadotropin-releasing hormone receptor stably expressed in HEK293 cells was determined
Format: cell-based

SMILES	Ki [nM]
N[C@@H](Cn1c(=O)n(Cc2c(F)cccc2F)c(=O)n(-c2ccc3nsnc3c2)c1=O)c1ccccc1	410
COc1cccc(-n2c(=O)n(CCN(C)CCc3ccccn3)c(=O)n(Cc3c(F)cccc3F)c2=O)c1	4200
N[C@@H](Cn1c(=O)n(Cc2c(F)cccc2F)c(=O)n(-c2c(F)cccc2F)c1=O)c1ccccc1	220
N[C@@H](Cn1c(=O)n(Cc2c(F)cccc2F)c(=O)n(-c2ccccc2F)c1=O)c1ccccc1	89
COc1cccc(-c2c(C)n(Cc3c(F)cccc3F)c(=O)n(C[C@@H](C)N(C)CCc3ccccn3)c2=O)c1	1.1
NC(Cc1c[nH]c2ccccc12)Cn1c(=O)n(Cc2c(F)cccc2F)c(=O)n(-c2c(F)cccc2F)c1=O (centres undefined)	380
COc1cccc(-n2c(=O)n(Cc3c(F)cccc3F)c(=O)n(C[C@H](N)c3ccccc3)c2=O)c1	37
COc1cccc(-c2c(C)n(CCN(C)CCc3ccccn3)c(=O)n(Cc3c(F)cccc3F)c2=O)c1	> 20000
COc1cccc(-n2c(=O)n(Cc3c(F)cccc3F)c(=O)n(CC(N)c3ccccc3)c2=O)c1 (centres undefined)	120
